Values after ≈ are worked out from the molar mass of the structure shown.
Experiments:
E.coli 1113 [1] = assay: FDAA metabolic labeling susceptibility test (Cy5-DAA probe, flow cytometry); assay type: cell-based, Escherichia coli; settings: Escherichia coli; E.coli 1113; Cy5-DAA probe, 2 hours; read-out: MIC, FDAA
Procedure: (§1) The specific experimental steps are as follows: • 1. Take the colony to be tested that has been cultured overnight on the plate and fully mix it in normal saline to make a uniform bacterial solution. Dilute it into CAMHB medium to make a bacterial solution with OD600=0.05. • 2. Add 45 μl antibiotic solutions to be tested of different concentrations to 96-well plates (see Table 3 for antibiotic concentration gradient settings). • 3. Add 50 μl of bacterial solution prepared in Step 1 to the 96-well plate and mix well. • 4.5 μl of 10 mM Cy5-DAA probe was added to each well (final concentration was 0.15 mM, and its structure was shown in FIG. 1). After mixing, the probe was incubated for 2 hours in the dark. • 5. After dilution with 200 μl PBS solution, the fluorescence intensity of each sample was detected by flow cytometry. The flow detection results are shown in the attached FIG. 4-5, showing the curve of antibiotic concentration gradient and fluorescence intensity, and the MIC (minimum inhibitory concentration) is obtained by referring to this curve.

E.coli 1146 [2] = assay: as above; assay type: cell-based, Escherichia coli; settings: Escherichia coli; E.coli 1146; Cy5-DAA probe, 2 hours; read-out: MIC, FDAA
Procedure: as §1

E.coli 1113 [3] = assay: Vitek 2 drug sensitivity test; assay type: cell-based, Escherichia coli; further: key: S: Drug sensitive; R: Drug resistance
E.coli 1146 [4] = assay: Vitek 2 drug sensitivity test; assay type: cell-based, Escherichia coli; on Sensibility: key: S: Drug sensitive; R: Drug resistance
E. coli Ec11 [5] = assay: BMD susceptibility test; assay type: cell-based, Escherichia coli; settings: unit assumed
E. coli Ec11 [6] = assay: FaAST (FDAA metabolic labeling); assay type: cell-based, Escherichia coli; settings: unit assumed
Procedure: as §1
(§2) Antibiotic resistant strains are shown in bold in the table below.

Ec ATCC 25922 [7] = assay: FaAST (FDAA metabolic labeling); assay type: cell-based, Escherichia coli; settings: unit assumed
Procedure: as §1, §2

E. coli Ec13 [8] = assay: BMD susceptibility test; assay type: cell-based, Escherichia coli; settings: unit assumed
E. coli Ec13 [9] = assay: FaAST (FDAA metabolic labeling); assay type: cell-based, Escherichia coli; settings: unit assumed
Procedure: as §1, with “cytometry.” for “cytometry. The flow detection results are shown in the attached FIG. 4-5, showing the curve of antibiotic concentration gradient and fluorescence intensity, and the MIC (minimum inhibitory concentration) is obtained by referring to this curve.”

Ec ATCC 25922 [10] = assay: BMD susceptibility test; assay type: cell-based, Escherichia coli; settings: unit assumed
P. aeruginosa Pa2 [11] = assay: BMD susceptibility test; assay type: cell-based, Pseudomonas aeruginosa; settings: unit assumed
P. aeruginosa Pa3 [12] = assay: BMD susceptibility test; assay type: cell-based, Pseudomonas aeruginosa; settings: unit assumed
P. aeruginosa Pa2 [13] = assay: FaAST (FDAA metabolic labeling); assay type: cell-based, Pseudomonas aeruginosa; settings: unit assumed
Procedure: as §1, §2

P. aeruginosa Pa3 [14] = assay: FaAST (FDAA metabolic labeling); assay type: cell-based, Pseudomonas aeruginosa; settings: unit assumed
Procedure: as §1, §2

Pa ATCC 27853 [15] = assay: FaAST (FDAA metabolic labeling); assay type: cell-based, Pseudomonas aeruginosa; settings: unit assumed
Procedure: as §1, §2

Pa ATCC 27853 [16] = assay: BMD susceptibility test; assay type: cell-based, Pseudomonas aeruginosa; settings: unit assumed
A. baumannii Ab16 [17] = assay: BMD susceptibility test; assay type: cell-based, Acinetobacter baumannii; settings: unit assumed
A. baumannii Ab16 [18] = assay: FaAST (FDAA metabolic labeling); assay type: cell-based, Acinetobacter baumannii; settings: unit assumed
Procedure: as §1, with “cytometry.” for “cytometry. The flow detection results are shown in the attached FIG. 4-5, showing the curve of antibiotic concentration gradient and fluorescence intensity, and the MIC (minimum inhibitory concentration) is obtained by referring to this curve.”

A. baumannii Ab19 [19] = assay: BMD susceptibility test; assay type: cell-based, Acinetobacter baumannii; settings: unit assumed
A. baumannii Ab19 [20] = assay: FaAST (FDAA metabolic labeling); assay type: cell-based, Acinetobacter baumannii; settings: unit assumed
Procedure: as §1, §2

K. pneumoniae Kp6 [21] = assay: BMD susceptibility test; assay type: cell-based, Klebsiella pneumoniae; settings: unit assumed
K. pneumoniae Kp9 = assay: BMD susceptibility test; assay type: cell-based, Klebsiella pneumoniae; settings: unit assumed
K. pneumoniae Kp6 [22] = assay: FaAST (FDAA metabolic labeling); assay type: cell-based, Klebsiella pneumoniae; settings: unit assumed
Procedure: as §1, with “cytometry.” for “cytometry. The flow detection results are shown in the attached FIG. 4-5, showing the curve of antibiotic concentration gradient and fluorescence intensity, and the MIC (minimum inhibitory concentration) is obtained by referring to this curve.”

[23] = tested on: bacteria contained in alveolar lavage fluid; assay: FDAA metabolic labeling susceptibility test of alveolar lavage fluid (Cy5-DAA probe); assay type: cell-based; settings: alveolar lavage fluid of patients with hospital acquired pneumonia, 2 hours
Procedure: (§3) With reference to the flow chart of the rapid detection method of antimicrobial susceptibility test based on FDAA metabolic markers shown in FIG. 3, FDAA is used for the detection of antimicrobial susceptibility test of alveolar lavage fluid. The specific experimental steps are as follows: • 1. Mix bronchoalveolar lavage fluid (BALF, 10 ml) of patients with hospital acquired pneumonia with cation regulated broth medium (CAMHB, 10 ml) of twice the concentration to prepare the bacterial fluid to be tested. • 2. Add 45 μl antibiotic solutions of different concentrations to the 96-well plate separately (see Table 1 for antibiotic concentration gradient settings). • 3. Add 50 μl of the bacterial solution prepared in step 1 to the 96-well plate and mix well. • 4. Add 5 μl of 10 mM Cy5-DAA probe (final concentration 0.15 mM, see FIG. 1 for its structure) into each well, mix well, and then cultivate in dark for 2 hours. • 5. Add 200 μl PBS solution for dilution, and then use flow cytometry to detect the fluorescence intensity of each sample.

[24] = tested on: bacteria contained in alveolar lavage fluid; assay: Vitek 2 drug sensitivity test of alveolar lavage fluid; assay type: cell-based; on Sensibility: key: S: Drug sensitive; R: Drug resistance
Escherichia coli ECO922 [25] = assay: VITEK drug sensitivity test; assay type: cell-based; settings: unit assumed
Escherichia coli ECO922 [26] = assay: FaAST with DAA-Tetra probe; assay type: cell-based; settings: unit assumed
Procedure: The specific experimental steps are as follows: • 1. The tested colonies cultured overnight on the plate were picked and mixed thoroughly in 2× Cation-Adjusted Mueller Hinton Broth medium (2×CAMHB) to make bacterial suspension with turbidity of OD600=0.1. • 2. […] Add 50 μL of the bacterial solution prepared in step 1 (the final concentration of the bacterial solution is OD600=0.05) to the 96-well plate, and add 5 μL of 3 mM DAA-Tetra probe (the final concentration is 0.15 mM), mix well, and incubate in the dark at 37° C. 120 rpm for 2 hours. • 4. After culture, dilute the mixed bacterial solution 10 times with PBS solution, and detect the fluorescence intensity of each sample with flow cytometry. The flow detection result is shown in FIG. 14-19, and the arrow is for the MIC value. The minimum inhibitory concentration of antibiotics was obtained according to the fluorescence signal intensity of flow detection, and the statistical results are shown in Table 6.

Escherichia coli ECO15 [27] = assay: VITEK drug sensitivity test; assay type: cell-based; settings: unit assumed
Escherichia coli ECO15 [28] = assay: FaAST with DAA-Cy5-2 probe; assay type: cell-based; settings: unit assumed
Procedure: as §3
The specific steps are the same as in Example 5. […] The minimum inhibitory concentration of antibiotics was obtained according to the fluorescence signal intensity of flow detection, and the statistical results are shown in Table 7.

C[C@@H](O)[C@H]1C(=O)N2C(C(=O)O)=C(SCCN=CN)C[C@H]12 [Imipenem, imipenem]
MIC (E.coli 1113 [1]): ≥ 128 µg/mL
MIC (E.coli 1146 [2]): 0.5 µg/mL (≈ 1.67 µM)
Sensibility (E.coli 1113 [3]): R
Sensibility (E.coli 1146 [4]): S
MIC (E.coli 1146 [4]; Escherichia coli): ≤ 1 µg/mL
BMD (MIC) (E. coli Ec11 [5]): ≤ 0.25 µg/mL
FaAST (MIC) (E. coli Ec11 [6]): 1 µg/mL
FaAST (MIC) (Ec ATCC 25922 [7]): 1 µg/mL
BMD (MIC) (E. coli Ec13 [8]): 16 µg/mL
FaAST (MIC) (E. coli Ec13 [9]): 128 µg/mL
BMD (MIC) (Ec ATCC 25922 [10]): ≤ 0.25 µg/mL
BMD (MIC) (P. aeruginosa Pa2 [11]): 1 µg/mL
BMD (MIC) (P. aeruginosa Pa3 [12]): 32 µg/mL
FaAST (MIC) (P. aeruginosa Pa2 [13]): 1 µg/mL
FaAST (MIC) (P. aeruginosa Pa3 [14]): 32 µg/mL
FaAST (MIC) (Pa ATCC 27853 [15]): 1 µg/mL
BMD (MIC) (Pa ATCC 27853 [16]): 2 µg/mL
BMD (MIC) (A. baumannii Ab16 [17]): 32 µg/mL
FaAST (MIC) (A. baumannii Ab16 [18]): 64 µg/mL
BMD (MIC) (A. baumannii Ab19 [19]): ≤ 0.25 µg/mL
FaAST (MIC) (A. baumannii Ab19 [20]): 1 µg/mL
BMD (MIC) (K. pneumoniae Kp6 [21]): ≤ 0.25 µg/mL
BMD (MIC) (K. pneumoniae Kp9): 128 µg/mL
FaAST (MIC) (K. pneumoniae Kp6 [22]): 1 µg/mL
MIC, FDAA [23]: ≥256 µg/mL
MIC [24]: ≥ 16 µg/mL
Sensibility [24]: R
MIC, VITEK (Escherichia coli ECO922 [25]): 1 µg/mL (≈ 3.34 µM)
MIC, FaAST (Escherichia coli ECO922 [26]): 1 µg/mL (≈ 3.34 µM)
MIC, VITEK (Escherichia coli ECO15 [27]): 128 µg/mL (≈ 428 µM)
MIC, FaAST (Escherichia coli ECO15 [28]): 128 µg/mL (≈ 428 µM)

— patent US20240240224A1, “FLUORESCENT D-TYPE AMINO ACID METABOLISM MARKER-BASED METHOD FOR DETECTING ANTIBACTERIAL DRUG SENSITIVITY TEST” (priority 2020, published 2024)
